Columns and labels:
Assay in all cases: Indoor herbicide activity determination, Seed Treatment; pre-emergence (soil spray)
Type in all cases: in vivo
Leptochloa chinensis = test system: Leptochloa chinensis
From the text: (§1) The testing method for herbicide activity of the compound of the present invention was as follows:
(§2) Seed Treatment; pre-emergence: quantitative seeds of gramineous weeds (Echinochloa crusgalli, Eleusine indica, Digitaria sanguinalis, Alopecurus japonicus, Beckmannia syzigachne, Leptochloa chinensis, Polypogon fugax, Alopecurus aequalis, Lolium multiflorum, Poa annua, Aegilops tauschii, Avena fatua, Alopecurus myosuroides, Alopecurus japonicus and Alopecurus aequalis), broad-leaved weeds (Eclipta prostrata, Amaranthus retroflexus, Rorippa indica, Malachium aquaticum, Veronica polita, Conyza canadensis, Sesbania cannabina, Sagittariatrifolia and Schoenoplectiella juncoides), and Cyperus iria were sown in plastic pots having a diameter of 7 cm and holes at the bottom and filled with nutrient soil (sandy soil, pH 6.1, organic matter 1%) respectively, the seeds were covered with an appropriate amount of soil after being sown, then the soil was wetted with water from the bottom, the seeds were cultured in a constant-temperature illuminated culture room for 24 h, and the soil was sprayed by using a 3WP-2000 traveling spray tower produced by the Nanjing Institute of Agricultural Mechanization of the Ministry of Agriculture, where a rotational speed of a main shaft was 96 mm/r, a spray height was 300 mm, an effective spraying range of a nozzle was 350 mm, a spray area was 0.35 m^2, and a flow rate at the nozzle was 390 mL/min.
(§3) Post-emergence: an appropriate quantity of seeds of gramineous weeds (Echinochloa crusgalli, Eleusine indica, Digitaria sanguinalis, Alopecurus japonicus, Beckmannia syzigachne, Leptochloa chinensis, Polypogon fugax, Alopecurus aequalis, Lolium multiflorum, Poa annua, Aegilops tauschii, Avena fatua, Alopecurus myosuroides, Alopecurus japonicus and Alopecurus aequalis), broad-leaved weeds (Eclipta prostrata, Amaranthus retroflexus, Rorippa indica, Malachium aquaticum, Veronica polita, Conyza canadensis, Sesbania cannabina, Sagittariatrifolia and Schoenoplectiella juncoides), and Cyperus iria were sown in plastic pots having a diameter of 7 cm and holes at the bottom and filled with nutrient soil (sandy soil, pH 6.1, organic matter 1%) respectively, the seeds were covered with an appropriate amount of soil after being sown, then the soil was wetted with water from the bottom, the seeds were cultured in a constant-temperature illuminated culture room until a 2-4 leaf stage, and stems and leaves underwent spray treatment. After the treatment, the test materials were placed in a laboratory and cultured in the constant-temperature illuminated culture room after the liquid was naturally dry in the shade, and results were determined 21 days later. Inhibition rate of fresh weight % = (1−(fresh weight of treated plants)/(fresh weight of control plants)) × 100% [formula]

Lolium multiflorum = test system: Lolium multiflorum
From the text: as §1, §2, §3

Aegilops tauschii = conditions: 120 g a.i./ha, read-out: Herbicidal activities (inhibition rate) Aegilops tauschii
From the text: as §1, §2, §3

Alopecurus japonicus = test system: Alopecurus japonicus
From the text: as §1, §2, §3

Eleusine indica = test system: Eleusine indica
From the text: as §1, §2, §3

Cyperus iria = conditions: read-out: Herbicidal activities (inhibition rate) Cyperus iria; for inhibition at 120 g/ha: 120 g a.i./ha; for inhibition at 60 g/ha: 60 g a.i./ha
From the text: as §1, §2, §3

Alopecurus myosuroides = test system: Alopecurus myosuroides
From the text: as §1, §2, §3

Eclipta prostrata = conditions: 60 g a.i./ha, read-out: Herbicidal activities (inhibition rate) Eclipta prostrata
From the text: as §1, §2, §3

| SMILES | Herbicidal activities, Leptochloa chinensis (inhibition rate class) (Leptochloa chinensis; Dosage 120 g a.i./ha) | inhibition at 60 g/ha (Eclipta prostrata) | Herbicidal activities, Eleusine indica (inhibition rate class) (Eleusine indica; Dosage 120 g a.i./ha) | inhibition at 60 g/ha (Cyperus iria) | Herbicidal activity (inhibition rate class), Leptochloa chinensis (Leptochloa chinensis; Dosage 120 g a.i./ha) | Herbicidal activity (inhibition rate class), Eleusine indica (Eleusine indica; Dosage 120 g a.i./ha) | further results |
| --- | --- | --- | --- | --- | --- | --- | --- |
| C=CC1(C(=O)N[C@H]2C[C@@H](C(=O)OCCSC)C2)CC(c2cc(F)cc(F)c2)=NO1 (mixture of isomers) [I-8] | – | – | – | – | – | – | Herbicidal activities, Leptochloa chinensis (inhibition rate class) (Leptochloa chinensis; Dosage 240 g a.i./ha): A (A indicates that the inhibition rate was greater than or equal to 80% to 100%); Herbicidal activities, Lolium multiflorum (inhibition rate class) (Lolium multiflorum; Dosage 240 g a.i./ha): A (A indicates that the inhibition rate was greater than or equal to 80% to 100%); inhibition at 120 g/ha (Aegilops tauschii): 80 to 100%; Herbicidal activities, Alopecurus japonicus (inhibition rate class) (Alopecurus japonicus; Dosage 240 g a.i./ha): A (A indicates that the inhibition rate was greater than or equal to 80% to 100%); Herbicidal activities, Eleusine indica (inhibition rate class) (Eleusine indica; Dosage 240 g a.i./ha): A (A indicates that the inhibition rate was greater than or equal to 80% to 100%); inhibition at 120 g/ha (Cyperus iria): 80 to 100%; Herbicidal activities, Alopecurus myosuroides (inhibition rate class) (Alopecurus myosuroides; Dosage 240 g a.i./ha): A (A indicates that the inhibition rate was greater than or equal to 80% to 100%) |
| O=C(N[C@H]1C[C@@H](C(=O)OC2CCCC2)C1)[C@@]1(C(F)(F)F)CC(c2cc(F)cc(OC(F)(F)F)c2)=NO1 [I-253] | A (A indicates that the inhibition rate was greater than or equal to 80% to 100%) | 60 to 80% | A (A indicates that the inhibition rate was greater than or equal to 80% to 100%) | 80 to 100% | – | – | Herbicidal activities, Alopecurus japonicus (inhibition rate class) (Alopecurus japonicus; Dosage 120 g a.i./ha): A (A indicates that the inhibition rate was greater than or equal to 80% to 100%); Herbicidal activities, Alopecurus myosuroides (inhibition rate class) (Alopecurus myosuroides; Dosage 120 g a.i./ha): A (A indicates that the inhibition rate was greater than or equal to 80% to 100%) |
| O=C(N[C@H]1C[C@@H](C(=O)OCC(F)(F)C(F)(F)F)C1)[C@@]1(C(F)(F)F)CC(c2cc(F)cc(OC(F)(F)F)c2)=NO1 [I-254] | A (A indicates that the inhibition rate was greater than or equal to 80% to 100%) | 80 to 100% | A (A indicates that the inhibition rate was greater than or equal to 80% to 100%) | 80 to 100% | – | – | Herbicidal activities, Alopecurus japonicus (inhibition rate class) (Alopecurus japonicus; Dosage 120 g a.i./ha): A (A indicates that the inhibition rate was greater than or equal to 80% to 100%); Herbicidal activities, Alopecurus myosuroides (inhibition rate class) (Alopecurus myosuroides; Dosage 120 g a.i./ha): A (A indicates that the inhibition rate was greater than or equal to 80% to 100%) |
| C=C[C@]1(C(=O)N[C@H]2C=C[C@@H](C(=O)OCCCCCCC)C2)CC(c2cc(F)cc(C(F)(F)F)c2)=NO1 [I-431] | A (A indicates that the inhibition rate was greater than or equal to 80% to 100%) | 80 to 100% | A (A indicates that the inhibition rate was greater than or equal to 80% to 100%) | 80 to 100% | – | – | Herbicidal activities, Lolium multiflorum (inhibition rate class) (Lolium multiflorum; Dosage 120 g a.i./ha): A (A indicates that the inhibition rate was greater than or equal to 80% to 100%); Herbicidal activities, Alopecurus japonicus (inhibition rate class) (Alopecurus japonicus; Dosage 120 g a.i./ha): A (A indicates that the inhibition rate was greater than or equal to 80% to 100%); Herbicidal activities, Alopecurus myosuroides (inhibition rate class) (Alopecurus myosuroides; Dosage 120 g a.i./ha): A (A indicates that the inhibition rate was greater than or equal to 80% to 100%) |
| C=C[C@]1(C(=O)N[C@H]2C=C[C@@H](C(=O)OCc3ccccc3)C2)CC(c2cc(F)cc(C(F)(F)F)c2)=NO1 [I-439] | A (A indicates that the inhibition rate was greater than or equal to 80% to 100%) | 80 to 100% | A (A indicates that the inhibition rate was greater than or equal to 80% to 100%) | 80 to 100% | – | – | – |
| C=CC(C)OC(=O)[C@@H]1C=C[C@H](NC(=O)[C@@]2(C=C)CC(c3cc(F)cc(C(F)(F)F)c3)=NO2)C1 (stereo partly shown) [I-444] | A (A indicates that the inhibition rate was greater than or equal to 80% to 100%) | 80 to 100% | A (A indicates that the inhibition rate was greater than or equal to 80% to 100%) | 80 to 100% | – | – | – |
| C=C[C@]1(C(=O)N[C@H]2C=C[C@@H](C(=O)OC)C2)CC(c2cc(Cl)cc(OC(F)(F)F)c2)=NO1 [I-471] | – | 80 to 100% | – | 80 to 100% | A (A indicates that the inhibition rate was greater than or equal to 80% to 100%) | A (A indicates that the inhibition rate was greater than or equal to 80% to 100%) | – |
| C=C[C@]1(C(=O)N[C@H]2C=C[C@@H](C(=O)OC3CCC3)C2)CC(c2cc(Cl)cc(C(F)(F)F)c2)=NO1 [I-478] | – | 80 to 100% | – | 80 to 100% | A (A indicates that the inhibition rate was greater than or equal to 80% to 100%) | A (A indicates that the inhibition rate was greater than or equal to 80% to 100%) | Herbicidal activity (inhibition rate class), Lolium multiflorum (Lolium multiflorum; Dosage 120 g a.i./ha): B (B indicates that the inhibition rate was greater than or equal to 60% to less than 80%); Herbicidal activity (inhibition rate class), Alopecurus japonicus (Alopecurus japonicus; Dosage 120 g a.i./ha): A (A indicates that the inhibition rate was greater than or equal to 80% to 100%); Herbicidal activity (inhibition rate class), Alopecurus myosuroides (Alopecurus myosuroides; Dosage 120 g a.i./ha): A (A indicates that the inhibition rate was greater than or equal to 80% to 100%) |
| C=C[C@]1(C(=O)N[C@H]2C=C[C@@H](C(=O)OC(C)C)C2)CC(c2cc(Cl)cc(C(F)(F)F)c2)=NO1 [I-483] | – | 80 to 100% | – | 80 to 100% | A (A indicates that the inhibition rate was greater than or equal to 80% to 100%) | A (A indicates that the inhibition rate was greater than or equal to 80% to 100%) | – |
| CSCCOC(=O)[C@@H]1C=C[C@H](NC(=O)C2(C)CC(c3cc(F)cc(C(F)(F)F)c3)=NO2)C1 (stereo partly shown) [I-497] | – | – | – | – | – | – | Herbicidal activity (inhibition rate class), Leptochloa chinensis (Leptochloa chinensis; Dosage 240 g a.i./ha): A (A indicates that the inhibition rate was greater than or equal to 80% to 100%); Herbicidal activity (inhibition rate class), Lolium multiflorum (Lolium multiflorum; Dosage 240 g a.i./ha): A (A indicates that the inhibition rate was greater than or equal to 80% to 100%); inhibition at 120 g/ha (Aegilops tauschii): 80 to 100%; Herbicidal activity (inhibition rate class), Alopecurus japonicus (Alopecurus japonicus; Dosage 240 g a.i./ha): A (A indicates that the inhibition rate was greater than or equal to 80% to 100%); Herbicidal activity (inhibition rate class), Eleusine indica (Eleusine indica; Dosage 240 g a.i./ha): A (A indicates that the inhibition rate was greater than or equal to 80% to 100%); inhibition at 120 g/ha (Cyperus iria): 80 to 100%; Herbicidal activity (inhibition rate class), Alopecurus myosuroides (Alopecurus myosuroides; Dosage 240 g a.i./ha): A (A indicates that the inhibition rate was greater than or equal to 80% to 100%) |
| C#CC(CC)OC(=O)[C@@H]1C=C[C@H](NC(=O)[C@@]2(C)CC(c3cc(Cl)cc(C(F)(F)F)c3)=NO2)C1 (stereo partly shown) [I-514] | – | 80 to 100% | – | 80 to 100% | A (A indicates that the inhibition rate was greater than or equal to 80% to 100%) | A (A indicates that the inhibition rate was greater than or equal to 80% to 100%) | Herbicidal activity (inhibition rate class), Lolium multiflorum (Lolium multiflorum; Dosage 120 g a.i./ha): A (A indicates that the inhibition rate was greater than or equal to 80% to 100%); Herbicidal activity (inhibition rate class), Alopecurus japonicus (Alopecurus japonicus; Dosage 120 g a.i./ha): A (A indicates that the inhibition rate was greater than or equal to 80% to 100%); Herbicidal activity (inhibition rate class), Alopecurus myosuroides (Alopecurus myosuroides; Dosage 120 g a.i./ha): A (A indicates that the inhibition rate was greater than or equal to 80% to 100%) |
| COC(=O)[C@@H]1C=C[C@H](NC(=O)[C@@]2(C(F)F)CC(c3cc(F)cc(C(F)(F)F)c3)=NO2)C1 [I-532] | – | 80 to 100% | – | 80 to 100% | A (A indicates that the inhibition rate was greater than or equal to 80% to 100%) | A (A indicates that the inhibition rate was greater than or equal to 80% to 100%) | – |

From patent EP4722201A1, “3-PHENYLISOXAZOLINE-5-CARBOXAMIDE COMPOUND, AND PREPARATION METHOD THEREFOR, HERBICIDAL COMPOSITION THEREOF AND USE THEREOF” (Jiangsu Flag Chemical Industry Co., Ltd, priority 2023, dated 2024)
